# In US20260166159A1, “KRAS G12D DEGRADATION AGENT, AND PREPARATION METHOD AND USE THEREFOR” (LEADINGTAC PHARMACEUTICAL (SHAOXING) CO., LTD., priority 2022, published 2026):
# Experiments:
# [1] = target: T1, Human KRAS G12D 6His-tagged (Homo sapiens, UniProt P01116, G12D); assay: KRAS-G12D/GTP binding assay (HTRF)
# T1 construct: purchased PerkinElmer
# Description: In this method, the inhibitory effects of the compounds on the binding of KRAS-G12D to GTP were assayed by a homogeneous time-resolved fluorescence (HTRF) technique using a KRAS-G12D/GTP binding assay kit (PerkinElmer).
# The experimental procedures were as follows (refer to the kit instructions for detailed test methods): the compounds of the present disclosure were each firstly dissolved in DMSO at a concentration of 20 mM, and then diluted in an equal gradient with a buffer in the kit, so that the final concentrations of the test compounds in the reaction system were in a range of 0.02-5000 nM, and the final concentration of DMSO was 0.5%. 5 μL of each compound was incubated with 5 μL of 1× Human KRAS G12D 6His-tagged (PerkinElmer), 5 μL of 1×6His Eu Cryptate Antibody (PerkinElmer), and 5 μL of 1×GTP Red reagent (PerkinElmer) in a 384-well plate (Greiner) at 25° C. for 1 h. After the incubation was completed, the fluorescence intensity of each well was measured at the excitation wavelength of 337 nm and the emission wavelengths of 620 nm and 665 nm with an EnVision microplate reader (PerkinElmer) in the HTRF mode, and Ratio values were calculated using the formula: Ratio=(665 nm/620 nm)×[…]. The inhibition rates of the compounds at each concentration were calculated by comparing the fluorescence intensity ratio with that of the control group. Then non-linear curve fittings for logarithmic concentration-inhibition rate were performed using the GraphPad Prism 8 analysis software, and the IC50 values of the compounds were obtained (Table 2).
# [2] = target: T2, KRAS-G12D (Homo sapiens, UniProt P01116, G12D); assay: KRAS-G12D degradation assay (Western Blot), A-427 cells; assay type: cell-based; conditions: A427 cells, 24 h, class symbols; for Dmax: A-427
# T2 construct: endogenous in cells; host or cells: A-427 (ATCC), AGS, AsPc-1, Panc 04.03
# Method in brief: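 Western blotting of lysates (5 μg protein) quantified KRAS against a β-actin reference after 24 h exposure to compound at final 0.03–3000 nM in 0.25% DMSO. Cells were A-427, AGS, AsPc-1 or Panc 04.03, all KRAS G12D, at 5×10^5/well. Degradation versus control yielded DC50 and Dmax.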
# [3] = tested on: KRAS G12D mutant human gastric cancer cell AGS; assay: 3D cell proliferation inhibition assay, AGS; assay type: cell-based; conditions: 168 h, 7 days, CTG, class symbols
# Method in brief: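 3D growth, low-adsorption plate; 5×10^2 cells/well; cpd 10000–0.026 nM final, 0.2% DMSO; 7 d, 37 °C/5% CO2. CTG luminescence, 60 min RT. % inhibition vs DMSO (cells) and medium blanks; IC50 by nonlinear fit.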
# [4] = tested on: KRAS G12D mutant human lung cancer cell A427; assay: 3D cell proliferation inhibition assay, A427; assay type: cell-based; conditions: A-427, 168 h, A427, 7 days, CTG, class symbols
# From the text: (§1) The inhibitory effects of the compounds on 3D cell proliferation were investigated on KRAS G12D mutant human lung cancer cell A427, KRAS G12D mutant human gastric cancer cell AGS, KRAS G12D mutant human metastatic pancreatic cancer cell AsPc-1, KRAS G12D mutant human pancreatic cancer cell Panc 04.03, KRAS G12D mutant human pancreatic cancer cell HPAC, KRAS G12V mutant human lung squamous cell carcinoma cell SW900, and KRAS WT human gastric cancer cell MKN1. The specific procedures were as follows:
# (§2) 10 μL of each compound solution diluted in a gradient was added to corresponding wells of a 96-well low-adsorption microplate (PerkinElmer), so that the final concentrations of the test compounds in the reaction system were in a range of 10000-0.026 nM. The final concentration of DMSO was 0.2%. Then 90 µL of cells were correspondingly seeded into each well to achieve a cell density of 5×10^2 cells/well (the cell density of SW900 was 5×10^1 cells/well, and the cell density of MKN1 was 1×10^3 cells/well). In addition to test wells for the test compounds, both a DMSO control well and a medium control well were set, with the DMSO control well containing DMSO and cells and the medium well containing only a medium. After the sample loading, the 96-well low-adsorption microplate was incubated in an incubator at 37° C. with 5% carbon dioxide for 7 days. After 7 days, the microplate was taken out, and 100 μL of CTG reagent (Promega) was added to each well. The plate was incubated at room temperature for 60 min and read on a microplate reader EnVision by the chemiluminescence program. The inhibition rates of the compounds at each concentration were calculated using the formula for the percentage inhibition of cell proliferation: inhibition rate %=(mean value of DMSO control group−single concentration reading value of compound)/(mean value of DMSO control group−mean value of medium control group)×100. Then non-linear curve fittings for logarithmic concentration-inhibition rate were performed by GraphPad Prism 8, and the IC50 values of the compounds were obtained (Table 5).
# [5] = tested on: KRAS G12D mutant human pancreatic cancer cell HPAC; assay: 3D cell proliferation inhibition assay, HPAC; assay type: cell-based; conditions: 168 h, 7 days, CTG
# From the text: as §1, §2
# [6] = tested on: KRAS G12D mutant human metastatic pancreatic cancer cell AsPc-1; assay: 3D cell proliferation inhibition assay, AsPc-1; assay type: cell-based; conditions: ASPC1, 168 h, AsPc-1, 7 days, CTG, numeric values
# From the text: as §1, §2
# T1 sequence (P01116 1-188 isoform P01116-2 G12D): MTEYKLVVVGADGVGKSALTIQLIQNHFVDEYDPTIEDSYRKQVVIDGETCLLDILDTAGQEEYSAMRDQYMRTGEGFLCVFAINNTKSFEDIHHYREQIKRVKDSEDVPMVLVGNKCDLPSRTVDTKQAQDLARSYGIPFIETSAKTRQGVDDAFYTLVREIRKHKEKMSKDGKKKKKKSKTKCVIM
# T2 sequence (P01116 1-188 isoform P01116-2 G12D): as above
Structure (SMILES),IC50 ([1]; class symbols),DC50 [2],Dmax [2],IC50 [3],IC50 [4],IC50 ([1]; numeric values),IC50 [5],IC50 [6]
"C#Cc1c(F)ccc2cc(O)cc(-c3ncc4c(N5CC6CCC(C5)N6)nc(OCC5(CN6CCN(CC7CCN(C(=O)c8ccc(Cl)c(N9CCC(=O)NC9=O)c8)CC7)CC6)CC5)nc4c3F)c12 [Example 27, 1-(5-(4-((4-((1-(((4-(3,8-diazabicyclo[3.2.1]octan-3-yl)-7-(8-ethynyl-7-fluoro-3-hydroxynaphthalen-1-yl)-8-fluoropyrido[4,3-d]pyrimidin-2-yl)oxy)methyl)cyclopropyl)methyl)piperazin-1-yl)methyl)piperidine-1-carbonyl)-2-chlorophenyl)dihydropyrimidine-2,4(1H,3H)-dione]",≤ 50 nM,1000 to 10000 nM,30 to 50%,≤ 50 nM,–,–,–,–
"C#Cc1c(F)ccc2cc(O)cc(-c3ncc4c(N5CC6CCC(C5)N6)nc(OCC5(CN6CCC(CN7CCC8(CC7)CCN(C(=O)c7ccc(OC)c(N9CCC(=O)NC9=O)c7)CC8)CC6)CC5)nc4c3F)c12 [Example 38, 1-(5-(9-((1-((1-(((4-(3,8-diazabicyclo[3.2.1]octan-3-yl)-7-(8-ethynyl-7-fluoro-3-hydroxynaphthalen-1-yl)-8-fluoropyrido[4,3-d]pyrimidin-2-yl)oxy)methyl)cyclopropyl)methyl)piperidin-4-yl)methyl)-3,9-diazaspiro[5.5]undecane-3-carbonyl)-2-methoxyphenyl)dihydropyrimidine-2,4(1H,3H)-dione]",≤ 50 nM,≤ 50 nM,80 to 100%,≤ 50 nM,≤ 50 nM,–,–,–
"C#Cc1c(F)ccc2cc(O)cc(-c3ncc4c(N5CC6CCC(C5)N6)nc(OCC5(CN6CC(CN7CCC8(CC7)CCN(C(=O)c7ccc(OC)c(N9CCC(=O)NC9=O)c7)CC8)C6)CC5)nc4c3F)c12 [Example 40, 1-(5-(9-((1-((1-(((4-(3,8-diazabicyclo[3.2.1]octan-3-yl)-7-(8-ethynyl-7-fluoro-3-hydroxynaphthalen-1-yl)-8-fluoropyrido[4,3-d]pyrimidin-2-yl)oxy)methyl)cyclopropyl)methyl)azetidin-3-yl)methyl)-3,9-diazaspiro[5.5]undecane-3-carbonyl)-2-methoxyphenyl)dihydropyrimidine-2,4(1H,3H)-dione]",≤ 50 nM,1000 to 10000 nM,30 to 50%,100 to 500 nM,1000 to 10000 nM,–,–,–
"Cc1ccc(C(=O)N2CCC3(CCC(CN4CCN(CC5(COc6nc(N7CC8CCC(C7)N8)c7cnc(-c8cccc9cccc(Cl)c89)c(F)c7n6)CC5)CC4)CC3)CC2)cc1N1CCC(=O)NC1=O [Example 45, 1-(5-(9-((4-((1-(((4-(3,8-diazabicyclo[3.2.1]octan-3-yl)-7-(8-chloronaphthalen-1-yl)-8-fluoropyrido[4,3-d]pyrimidin-2-yl)oxy)methyl)cyclopropyl)methyl)piperazin-1-yl)methyl)-3-azaspiro[5.5]undecane-3-carbonyl)-2-methylphenyl)dihydropyrimidine-2,4(1H,3H)-dione]",≤ 50 nM,1000 to 10000 nM,< 30%,50 to 100 nM,50 to 100 nM,–,–,–
"C#Cc1c(F)ccc2cc(O)cc(-c3ncc4c(N5CC6CCC(C5)N6)nc(OCC56CC(CN7CCN(CCC8CCC9(CC8)CCN(C(=O)c8ccc(Cl)c(N%10CCC(=O)NC%10=O)c8)CC9)CC7)(C5)C6)nc4c3F)c12 [Example 56, 1-(5-(9-(2-(4-((3-(((4-(3,8-diazabicyclo[3.2.1]octan-3-yl)-7-(8-ethynyl-7-fluoro-3-hydroxynaphthalen-1-yl)-8-fluoropyrido[4,3-d]pyrimidin-2-yl)oxy)methyl)bicyclo[1.1.1]pentan-1-yl)methyl)piperazin-1-yl)ethyl)-3-azaspiro[5.5]undecane-3-carbonyl)-2-chlorophenyl)dihydropyrimidine-2,4(1H,3H)-dione]",50 to 100 nM,≤ 50 nM,50 to 80%,≤ 50 nM,50 to 100 nM,–,–,–
"C#Cc1c(F)ccc2cc(O)cc(-c3ncc4c(N5CC6CCC(C5)N6)nc(OCC5(CN6CC7CC6CN7CC6CCC7(CC6)CCN(C(=O)c6ccc(Cl)c(N8CCC(=O)NC8=O)c6)CC7)CC5)nc4c3F)c12 (stereo not shown) [Example 59, 1-(5-(9-((5-((1-(((4-(3,8-diazabicyclo[3.2.1]octan-3-yl)-7-(8-ethynyl-7-fluoro-3-hydroxynaphthalen-1-yl)-8-fluoropyrido[4,3-d]pyrimidin-2-yl)oxy)methyl)cyclopropyl)methyl)-2,5-diazabicyclo[2.2.1]heptan-2-yl)methyl)-3-azaspiro[5.5]undecane-3-carbonyl)-2-chlorophenyl)dihydropyrimidine-2,4(1H,3H)-dione]",≤ 50 nM,1000 to 10000 nM,< 30%,≤ 50 nM,100 to 500 nM,–,–,–
"C#Cc1c(F)ccc2cc(O)cc(-c3ncc4c(N5CC6CCC(C5)N6)nc(OCCN5CCN(CCC6CCC7(CC6)CCN(C(=O)c6ccc(Cl)c(N8CCC(=O)NC8=O)c6)CC7)CC5)nc4c3F)c12 [Example 61, 1-(5-(9-(2-(4-(2-((4-(3,8-diazabicyclo[3.2.1]octan-3-yl)-7-(8-ethynyl-7-fluoro-3-hydroxynaphthalen-1-yl)-8-fluoropyrido[4,3-d]pyrimidin-2-yl)oxy)ethyl)piperazin-1-yl)ethyl)-3-azaspiro[5.5]undecane-3-carbonyl)-2-chlorophenyl)dihydropyrimidine-2,4(1H,3H)-dione]",–,–,–,≤ 50 nM,100 to 500 nM,21.1 nM,–,–
"C#Cc1c(F)ccc2cc(O)cc(-c3ncc4c(N5CC6CCC(C5)N6)nc(OCC(CN5CCN(CC6CCC7(CC6)CCN(C(=O)c6ccc(OC)c(N8CCC(=O)NC8=O)c6)CC7)CC5)OC)nc4c3F)c12 (stereo not shown) [Example 105, 1-(5-(9-((4-(3-((4-(3,8-diazabicyclo[3.2.1]octan-3-yl)-7-(8-ethynyl-7-fluoro-3-hydroxynaphthalen-1-yl)-8-fluoropyrido[4,3-d]pyrimidin-2-yl)oxy)-2-methoxypropyl)piperazin-1-yl)methyl)-3-azaspiro[5.5]undecane-3-carbonyl)-2-methoxyphenyl)dihydropyrimidine-2,4(1H,3H)-dione]",–,–,–,–,–,–,12.7 nM,93.5 nM
